This is an account of results in patent US11225469B2, “Inhibitors of phosphoglycerate dehydrogenase (PHGDH) and uses thereof” (Whitehead Institute for Biomedical Research, priority 2015, dated 2022).

A short description of series [1]: Pharmacokinetics after intraperitoneal administration. The format is in vivo.
Series [2] addresses GPD1L (Homo sapiens (Human), UniProt Q8N335). The series can be described thus: Counter-screen against GPD1L. It is filed as biochemical. As to conditions: Table E11. The procedure:
(§1) GAPDH substrate buffer contained 210 mM Tris pH 7.4, 2.5 mM NaH2PO4 pH 7.4, 2 mM DL-Glyceraldehyde 3-phosphate, 1.75 mM MgCl2, 0.01 mM NAD+, 0.11 mM resazurin, 0.2 mg/mL BSA, and 0.01% Tween-20. GAPDH enzyme buffer contained 50 mM Tris pH 7.4, 100 mM NaCl, 0.02 mM TCEP, 0.01 mM EDTA, 0.1 mg/mL BSA, 0.42 mg/mL diaphorase, and 2.5 nM GAPDH. The GAPDH, GPD1, and GPD1L assays were run in 384-well plates using the same protocol and readout as the PHGDH assay. […] GPD1 enzyme buffer contained 50 mM Tris pH 7.4, 100 mM NaCl, 0.08 mM TCEP, 0.4 mg/mL BSA, 0.03 μM EDTA, and 0.8 nM GPD1. 70 μL of substrate buffer were mixed with 10 μL enzyme buffer. GPD1L substrate buffer contained 200 mM Tris pH 7.4, 0.05 mM sn-G3-P, 2 mM MgCl2, 0.04 mM NAD+, 0.11 mM resazurin, 0.1 mg/mL BSA, and 0.02% Tween-20. GPD1L enzyme buffer contained 50 mM Tris pH 7.4, 100 mM NaCl, 0.02 mM TCEP, 0.42 mg/mL diaphorase, 0.1 mg/mL BSA, 0.008 μM EDTA, and 16 nM GPD1L. 40 μL of substrate buffer were mixed with 40 μL of enzyme buffer.
(§2) The GAPDH and GPD1L assays were read using the same protocol as the PHGDH assay. The GPD1 assay was read using loss of NADH fluorescence (λex=340 nm and λem=460 nm).
A general note: Counterscreens check selectivity or assay interference.

In series [3] the test system is MDA-MB-468 orthotopic xenografts. The series is described as follows: MDA-MB-468 orthotopic xenografts. It is filed as in vivo, mouse. As to conditions: 40 mg/kg daily, IP. The procedure:
Female NOD.CB17-Prkdc^scid/J mice, 6-8 weeks old, were obtained from Jackson Laboratories. All animals were provided with food ad libitum for the duration for the duration of the experiment. The animals were allocated randomly for induction with MDA-MB-231 or MDA-MB-468 tumors and tumor group was assigned blindly. 500,000 MDA-MB-231 or MDA-MB-468 cells were injected into the 4th mammary fat pad of each mouse. After 30 days, the tumors were palpable, and the mice were pooled by tumor type and divided randomly to two groups, which were assigned blindly to vehicle or NCT-503 treatment. […] Caliper measurements were obtained twice weekly and tumor volumes were calculated with the modified ellipsoid formula: volume=0.5×width^2×length.
For quantitation of necrotic regions, fixed tumors were embedded and sections stained with hematoxylin and eosin. Slides were scanned with a Leica Aperio AT2 brightfield scanner. Tumor and necrotic cross-sectional regions were manually delineated and measured using Leica ImageScope software to calculate the percentage of necrosis.

The test system of series [4] is panel of other dehydrogenases. The series can be described thus: Panel of other dehydrogenases. It is filed as biochemical.
Series [5] has as its system panel of 168 GPCRs. The series can be described thus: Cross-reactivity in a panel of 168 GPCRs.
Series [6] has as its system PHGDH-dependent cell lines (MDA-MB-468, BT-20, HCC70, HT1080, and MT-3). The series can be described thus: Cytotoxicity (Cell Titer-Glo), PHGDH-dependent cell lines. It is filed as cell-based. As to conditions: Homo sapiens. The procedure:
Knockdown of PHGDH is selectively toxic towards PHGDH-dependent cell lines, and minimally toxic towards PHGDH-independent cell lines. […] Cell count was determined by quantitating the amount of ATP present with CellTitreGlo® measurements 96 hours after dosage.
Cells were seeded in white 96-well plates (Greiner) at a density of 2000 cells/well (MDA-MB-468, BT-20, MT-3) or 1000 cells/well (all other cell lines) and allowed to attach for 24 hours. Compounds were prepared in DMSO and dispensed using an HP D300 compound dispenser. Cell viability was assessed with Cell Titer-Glo (Promega) at four days following treatment and luminescence measured with a SpectraMax M5 Plate Reader (Molecular Devices). Luminescence was normalized to an untreated control in identical medium. For rescue experiments, RPMI was supplemented with 40 μM adenosine, uridine, guanosine, cytidine, deoxyadenosine, thymidine, deoxyguanosine, and deoxycytidine and the medium was replaced daily.
On the technique in general: Cellular ATP, detected with luciferase, serves as a proxy for viable cell number.

In series [7] the target is GPD1 (Homo sapiens (Human), UniProt P21695). The series can be described thus: Counter-screen against GPD1. The note with it: Table E11. The format is biochemical. The procedure: as §1, §2

Molecules are shown by their SMILES.

One may read the IC50 as the concentration that inhibits the measured activity by half. Lower therefore signals higher potency. For orientation: EC50 means the concentration needed to bring the measured effect to its halfway point. The low end stands for a more potent agent, the high end for a less potent agent.

Sequence of GPD1 (P21695 whole entry): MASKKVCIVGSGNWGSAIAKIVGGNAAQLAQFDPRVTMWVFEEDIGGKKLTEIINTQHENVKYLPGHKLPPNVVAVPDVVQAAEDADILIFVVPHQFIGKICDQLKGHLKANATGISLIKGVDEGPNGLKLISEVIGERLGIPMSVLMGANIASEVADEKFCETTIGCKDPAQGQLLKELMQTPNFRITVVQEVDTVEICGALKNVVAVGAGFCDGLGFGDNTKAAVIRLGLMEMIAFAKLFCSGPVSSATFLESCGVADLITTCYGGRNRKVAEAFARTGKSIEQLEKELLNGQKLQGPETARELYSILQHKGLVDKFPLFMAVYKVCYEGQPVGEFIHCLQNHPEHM
Sequence of GPD1L (Q8N335 whole entry): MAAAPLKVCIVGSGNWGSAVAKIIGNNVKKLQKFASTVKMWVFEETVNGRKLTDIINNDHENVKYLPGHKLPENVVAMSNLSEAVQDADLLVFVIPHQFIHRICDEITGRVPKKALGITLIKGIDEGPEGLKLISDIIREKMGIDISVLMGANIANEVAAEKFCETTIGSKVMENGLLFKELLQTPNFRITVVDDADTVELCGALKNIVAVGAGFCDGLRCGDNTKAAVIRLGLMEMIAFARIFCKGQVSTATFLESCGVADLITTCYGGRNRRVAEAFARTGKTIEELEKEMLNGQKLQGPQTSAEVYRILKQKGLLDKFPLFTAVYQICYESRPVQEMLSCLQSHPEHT

On to `Cc1cc(C)nc(NC(=S)N2CCN(Cc3ccc(C(F)(F)F)cc3)CC2)c1` [Compound 267, N-(4,6-dimethylpyridin-2-yl)-4-(4-(trifluoromethyl)benzyl)piperazine-1-carbothioamide], for which, in series [1], the “partitioning into the liver and brain” value is reported as “significant partitioning”. Further, the IC50 in series [2] is no less than 100 µM. In series [3], the fraction of necrosis entry is recorded as “increases the fraction of necrosis”; the “growth and weight of xenografts” value was “reduced the growth and weight”. For the same compound, the “activity against a panel of other dehydrogenases” value in series [4] is “inactive”. Also, in series [5], the “cross-reactivity, modulation of activity” value was less than 30%. The concentration giving a half-maximal response (EC50) in series [6] is 8 to 16 µM. The compound also showed an IC50 in series [7] of no less than 100 µM.
